{"source": "patent US6492404B1", "about": "“Thiazolylcinnamonitriles and pest controlling agents” (Nippon Soda Co., Ltd., priority 1998, dated 2002)", "tested_on": "Pseudaletia separata Walker", "assay": "Effects on Pseudaletia separata Walker (corn leaf immersion, third instar larvae)", "assay_type": "in vivo", "settings": "wettable powder diluted to 125 ppm, corn leaves immersed 30 seconds, 25° C., 65% RH, assessed 6 days after treatment", "experimental": "Effects on Pseudaletia separata Walker\nAccording to the instructions of the wettable powder described in the above Example 2, a wettable powder was diluted with water to make the compound concentration 125 ppm. Corn leaves were immersed in the solution for 30 seconds, air-dried and placed in a Petri dish containing 5 third instar larvae of Pseudaletia separata Walker. The dish was covered with a glass lid and placed in a thermostatic chamber of temperature of 25° C. and relative humidity of 65%. Mortality was assessed 6 days after treatment. Each test was replicated twice."}
{"smiles": "Cc1cc(Cl)ccc1N=CN(C)C", "note": "[Chlordimeform]", "values": [{"measurement": "mortality", "value": 40, "unit": "%"}]}
